{"source": "patent EP1574213B1", "about": "“Use of histone deacetylase inhibitors for increasing therapeutic gain in radiotherapy and chemotherapy” (Asan Laboratories Company (Cayman), Limited, priority 2004, dated 2005)", "key": {"irradiated skin": {"test_system": "irradiated skin", "experiment": "Radiation-induced skin reaction after 40Gy, gross skin score and H&E histology", "type": "in vivo, Sprague Dawley (SD) rats", "conditions": "for radiation-induced skin damage including acute dermatitis and desquamation, and late fibrosis, ulceration and necrosis: in words", "procedure": "Adult female Sprague Dawley (SD) rats were purchased from the animal center of the National Science Council of Taiwan, and weighed 250-300g at the time of irradiation. Each rat was caged alone and allowed chow and water. They were anesthetized with pentobarbital 50mg/kg i.p. before irradiation. The skin over gluteal area was shaved completely and radiation fields with 2-cm diameter were outlined with a marking pen just prior to irradiation. An electron beam with 6MeV energy produced by a linear accelerator was used. The dose was delivered on Day 0 at 4Gy/min up to 40Gy to the prepared area. Each group treated with a histone deacetylase inhibitor was further divided into three subgroups animals (5 each) : one subgroup treated with skin irradiation followed by vehicle, another with skin irradiation followed by a histone deacetylase inhibitor, and the third with skin irradiation only. Then vaseline (negative control), madecassol ointment (positive control), or either vehicles or the 1% phenylbutyrate cream, 1% valproic acid cream, or 0.1% trichostatin A ointment were applied topically to the irradiated skin twice daily from Day 1 to Day 90 after irradiation. The mean dosage for each treatment in the respective groups was 16mg vaseline per cm^2 skin, 16mg madecassol per cm^2 skin, 50mg phenylbutyrate per cm^2 skin, 50mg valproic acid per cm^2 skin, 5mg trichostatin A per cm^2 skin, and an equivalent amount of the vehicle base for the control groups. The gross skin reactions were evaluated in all rats. Acute skin reactions were evaluated and scored every other day until the 90th day after irradiation using the modified skin score system (Abe Y. and Urano M. Fraction size-dependent acute skin reaction of mice after multiple twice-a-day doses. International Journal of Radiation Oncology, Biology, Physics. 18(2):359-64, 1990): 0=normal, 0.5=slight epilation, 1.0=epilation in about 50% of the radiated area, 1.5=epilation in greater than 50% of the area, 2.0=complete epilation, 2.5=complete epilation with definitive edema or dry desquamation in more than 50% of the area, 3.0=moist desquamation in a small area, 3.5=moist desquamation in most of the area.\nThe skin score increases with more severe skin reaction. On Day 11, the skin reactions in the groups treated with madecassol (positive control) or histone deacetylase inhibitors were less marked than those in the negative or vehicle control groups. By day 21, the epilation in the negative or vehicle groups had progressed to wet desquamation in most areas whereas in the madecassol or histone deacetylase inhibitor groups, it improved, and epithelium healing had begun quickly. […]"}, "[1]": {"test_system": "TGF-β1, TGF-β2, and TNF-α", "experiment": "Cytokine mRNA in irradiated skin (RNase protection assay, northern blot)", "type": "in vivo, rats", "conditions": "for radiation-induced TGF-β1, TGF-β2, and TNF-α expression: northern blot, irradiated skin", "procedure": "(§1) The timing of the peak appearance of TGF-β1, TGF-β2, and TNF-α expression levels induced by radiation correlated with the beginning of development of radiation-induced damage (FIG. 4). Levels of TGF-β1, TGF-β2, TGF-β3, and TNF-α mRNA were assessed using a multiple cytokine RNase protection assay kit (Riboquant; Pharmingen, San Diego, CA) that contained a template set to allow for the generation of a 32P-labeled antisense RNA probe set that hybridized with the target mRNA for TGF-β1, TGF-β2, TGF-β3, TNF-α, and internal control GAPDH. After hybridization of labeled probe to target RNA, unprotected RNA was digested by a ribonuclease (RNase), and protected RNA fragments were resolved on a 6% polyacrylamide gel and recorded by phosphorimaging (Molecular Dynamics Corp., Sunnyvale, CA). Densitometry was used to quantify the amount of each mRNA species and was normalized to the internal control GAPDH.\nThe means of skin scores for skin reactions from five rats in each group were calculated. The average levels of cytokine/growth factor mRNA from three skin samples in each group were normalized to the internal control GAPDH and expressed as a ratio to the average level in time-matched control groups. The Mann-Whitney test (Stata Statistical Software, College Station, TX) was used to determine statistical significance at the p < 0.05 level for differences in average skin scores and in average mRNA levels, respectively, between treated and control rats.\nTotal RNA was isolated from frozen skin samples using Trigent (Molecular Research Center Inc., Cincinnati, OH). Total RNA (30 µg) was electrophoresed in a denaturing formaldehyde-agarose gel, blotted onto Hybond N (Amersham, Amersham, UK), and fixed by ultraviolet (UV) irradiation. The membrane was incubated with 32P-labeled probes, as described below, in Rapid-hyb buffer (Amersham). […]"}, "EBV thymidine kinase": {"test_system": "EBV thymidine kinase", "experiment": "EBV thymidine kinase activity assay", "type": "cell-based, Epstein-Barr virus (EBV)", "conditions": "1 nM for 48 hours; EBV-positive Daudi cells", "procedure": "For EBV thimidine kinase activity assay, an equal amount of cytosol fraction was incubated with reaction buffer (50mM Tris-HCl pH 7.4, 1mg/ml BSA, 3mM creatine phosphate, 11.2U/ml creatine phosphokinase, 0.1µm [3H-8]-GCV (specific activity 13.5 Ci/mmol), 2.5mM ATP, 2.5mM MgCl2, 10mM NaF, 10mM DTT) at 37°C for 30 mins. The reaction mixtures were added on WhatmanR DE-81 ion exchange chromatography papers, which were then washed with 1.5mM NH4COOH three times to remove unphosphorylated form of [3H-8]-GCV. After air dry, these papers were incubated with liquid scintillation cocktail overnight. The phosphorylation form of [3H-8]-GCV bound on WhatmanR DE-81 ion exchange chromatography paper was measured by LS6500 scintillation counter (Beckman).\nThe combination of TSA, GCV and radiation produced selectively maximal death in EBV-positive cells but not in EBV-negative cells (FIG. 11B). Daudi cells (EBV+) and HL-60 (EBV-) were treated with ganciclovir (GCV) (10 µg/ml) and /or trichostatin A (TSA) (1 nM) for 48 hours, then radiated with or without 1 Gy radiation (RT). Viable cells were counted 1 week later."}, "[2]": {"test_system": "CNE2 nasopharyngeal carcinoma cells", "experiment": "Tumor radiosensitization, colony formation", "type": "cell-based", "conditions": "for Radiation enhancement ratio (RER): 60 minutes prior to radiation, at 10% survival", "procedure": "Radiation enhancement ratio (RER) is used to calculate the ratio of radiation doses that give the same effect. RER= (Radiation dose without drug treatment at 10% survival fraction)/(Radiation dose with drug treatment at 10% survival fraction).\nValproic acid (0.1 mM or 0.5 mM) was added in CNE2 nasopharyngeal carcinoma cells 60 minutes prior to radiation with radiation dose from 2 to 16 Gy, then washed out. After one week, colonies containing more than 50 cells were counted."}, "1MEA7R.1": {"test_system": "1MEA7R.1", "experiment": "Cutaneous tumor growth, topical treatment, 1MEA7R.1", "type": "in vivo, BALB/c mice", "conditions": "4 weeks; 200 mg/mouse twice per day topically", "procedure": "(§2) The syngeneic carcinoma cells 1MEA7R.1 and CT-26 (purchased from American Type Culture Collection, Manassas, VA) were subcutaneously injected into the flank areas of female BALB/c mice. The tumor was allowed to a maximum dimension of 0.5 cm. Topical HDAC inhibitors or vehicle was applied at a dose of 200 mg/mouse to cover the whole tumor surface and surrounding skin twice per day for 4 weeks. The tumor size was calculated weekly with a caliper according to the formula ab2/2, where a and b are the larger and smaller diameters (in centimeters), respectively.\n(§3) The topical PB formulation was show to have antitumor effects. […] Cutaneous tumors were allowed to grow to the largest dimension 0. 5 cm (FIG. 8D), and PB was topically applied to the tumor surface at 200 mg/mouse twice per day. By 4 weeks, the tumor sizes of 1MEA7R.1 and CT-26 carcinomas in the placebo groups were almost 6- and 1.6-fold larger than those in the PB-treated groups, respectively (FIGS. 8B-8C)."}, "TGF-β3": {"test_system": "TGF-β3", "experiment": "TGF-β3 mRNA in irradiated skin (RNase protection assay)", "type": "in vivo, rats", "conditions": "Vaseline, vehicle, or PB", "procedure": "as §1\nThe means of skin scores for skin reactions from five rats in each group were calculated. The average levels of cytokine/growth factor mRNA from three skin samples in each group were normalized to the internal control GAPDH and expressed as a ratio to the average level in time-matched control groups. […]"}, "[3]": {"test_system": "syngeneic carcinoma cells 1MEA7R.1 and CT-26", "experiment": "Direct antitumor effect on cutaneous tumor growth (both tumors, summary)", "type": "in vivo, BALB/c mice", "conditions": "withdrawal after 5 weeks of treatment", "procedure": "as §2, with “Topical HDAC inhibitors or vehicle was applied at a dose of 200 mg/mouse to cover the whole tumor surface and surrounding skin twice per day for 4 weeks.” left out\nas §3\nThe histological findings on skin specimens from 5 irradiated rats in each group are represented as follows: A, subepithelial swelling. B, dry desquamation in more than 50% of the area. C, wet desquamation in more than 50% of the area. D, atrophy of epidermis in most areas. E, atrophy of skin appendages in most areas. F, increased thickness of epithelium with more cell layers. G, increased collagen deposition, more vessel density, and increased thickness of dermis. H, chronic ulceration, necrosis, bullae formation, and more inflammatory cell infiltrate. […]"}, "p21Cip1": {"test_system": "p21Cip1", "experiment": "p21Cip1 protein level in carcinoma cells in vitro", "type": "cell-based", "conditions": "BNL 1MEA7R.1 and CT-26 carcinoma cells; 4 mM PB"}, "radiation-induced tumors": {"test_system": "radiation-induced tumors", "experiment": "Late radiation-induced skin tumor formation", "type": "in vivo, rats", "conditions": "90 weeks, irradiated groups", "excerpt": "The decrease of TGF-β expression caused by PB treatment might decrease the incidence of late radiation-induced tumorigenesis. […] The histology of radiation-induced tumors included fibroma, spindle cell sarcoma, basal cell carcinoma, and squamous cell carcinoma."}, "TGF-beta protein": {"test_system": "TGF-beta protein", "experiment": "Immunofluorescence with anti-TGF-beta1, 2 antibodies in irradiated skin", "type": "in vivo, rats", "conditions": "Day 180", "excerpt": "The same pathological sections in example 4 were subjected to immunofluorescence with the anti-TGF-beta1, 2 antibodies."}, "CT-26": {"test_system": "CT-26", "experiment": "Cutaneous tumor growth, topical treatment, CT-26", "type": "in vivo, BALB/c mice", "conditions": "4 weeks; 200 mg/mouse twice per day topically", "procedure": "as §2, §3"}, "TNF-α": {"test_system": "TNF-α", "experiment": "Immunohistochemistry of TNF-alpha in irradiated skin", "type": "in vivo, rats", "conditions": "Day 270", "excerpt": "The decrease in late radiation-induced skin damage by topical PB was consistent with the suppression of TNF-α expression (FIG. 6)."}}}
{"smiles": "CC(/C=C/C(=O)NO)=C\\[C@@H](C)C(=O)c1ccc(N(C)C)cc1", "note": "[TSA, Trichostatin A]", "values": [{"measurement": "radiation-induced skin damage including acute dermatitis and desquamation, and late fibrosis, ulceration and necrosis", "setting": "irradiated skin", "result": "suppressing"}, {"measurement": "radiation-induced TGF-β1, TGF-β2, and TNF-α expression", "setting": "[1]", "result": "decreased"}, {"measurement": "EBV thymidine kinase activity", "setting": "EBV thymidine kinase", "result": "up-regulated"}]}
{"smiles": "CCCC(CCC)C(=O)O", "note": "[Valproic acid]", "values": [{"measurement": "Radiation enhancement ratio (RER)", "setting": "[2]; 0.1 mM", "result": 1.2}, {"measurement": "Radiation enhancement ratio (RER)", "setting": "[2]; 0.5 mM", "result": 1.7}, {"measurement": "radiation-induced skin damage including acute dermatitis and desquamation, and late fibrosis, ulceration and necrosis", "setting": "irradiated skin", "result": "suppressing"}, {"measurement": "radiation-induced TGF-β1, TGF-β2, and TNF-α expression", "setting": "[1]", "result": "decreased"}]}
{"smiles": "O=C(O)CCCc1ccccc1", "note": "[PB, Phenylbutyrate]", "values": [{"measurement": "plating efficiency", "setting": "[2]; versus control", "result": "the same"}, {"measurement": "tumor size in the placebo group relative to the PB-treated group", "setting": "1MEA7R.1", "result": "~6", "unit": "fold"}, {"measurement": "differences in TGF-β3 mRNA levels between irradiated groups", "setting": "TGF-β3", "result": "No significant differences"}, {"measurement": "time to reach the same size as control or placebo tumors after withdrawal", "setting": "[3]", "result": "≤ 2", "unit": "weeks"}, {"measurement": "p21Cip1", "setting": "p21Cip1", "result": "up-regulation"}, {"measurement": "cumulative tumor incident", "setting": "radiation-induced tumors", "result": 0, "unit": "%"}, {"measurement": "rats showing chronic ulceration, necrosis, bullae formation, and inflammatory cell infiltration", "setting": "irradiated skin; Day 270", "result": "zero of five"}, {"measurement": "radiation-induced skin damage including acute dermatitis and desquamation, and late fibrosis, ulceration and necrosis", "setting": "irradiated skin", "result": "suppressing"}, {"measurement": "expression of TGF-beta", "setting": "TGF-beta protein", "result": "suppressed effectively"}, {"measurement": "tumor size in the placebo group relative to the PB-treated group", "setting": "CT-26", "result": "~1.6", "unit": "fold"}, {"measurement": "mRNA levels of TGF-β1, TGF-β2, and TNF-α", "setting": "[1]; Day 28-35 after irradiation", "result": "returned to the non-irradiated control levels"}, {"measurement": "TNF-α expression", "setting": "TNF-α", "result": "suppression"}]}
